Activity calls are given as the source filed them. No cut-off for these calls is given here.
Experiments:
Jurkat [1] = assay: Induction of ROS generation in human Jurkat cells at 200 nM after 2 hrs by MitoSox Red/annexin V-CF488A staining based flow cytometric analysis relative to control; type: functional
Jurkat [2] = assay: Induction of apoptosis in human Jurkat cells assessed as early apoptotic cells at 400 nM after 24 hrs by Annexin V/7-AAD staining.based flow cytometric analysis relative to control; type: functional
Jurkat [3] = assay: Induction of apoptosis in human Jurkat cells assessed as viable cells at 200 nM after 24 hrs by Annexin V/7-AAD staining.based flow cytometric analysis relative to control; type: functional; details: read-out: Activity
Jurkat [4] = assay: Induction of apoptosis in human Jurkat cells assessed as late apoptotic cells at 200 nM after 24 hrs by Annexin V/7-AAD staining.based flow cytometric analysis relative to control; type: functional
Jurkat [5] = assay: Induction of apoptosis in human Jurkat cells assessed as viable cells at 100 nM after 24 hrs by Annexin V/7-AAD staining.based flow cytometric analysis relative to control; type: functional; details: read-out: Activity
Jurkat [6] = assay: Induction of apoptosis in human Jurkat cells assessed as necrotic cells at 100 nM after 24 hrs by Annexin V/7-AAD staining.based flow cytometric analysis relative to control; type: functional
Jurkat [7] = assay: Induction of apoptosis in human Jurkat cells assessed as viable cells at 50 nM after 24 hrs by Annexin V/7-AAD staining.based flow cytometric analysis relative to control; type: functional; details: read-out: Activity
Jurkat [8] = assay: Induction of cell cycle arrest in human Jurkat cells assessed as accumulation at G1 phase at 100 nM after 24 hrs by Guava Cell Cycle reagent based flow cytometric analysis relative to control; type: functional
Jurkat [9] = assay: Induction of cell cycle arrest in human Jurkat cells assessed as accumulation at S phase at 200 nM after 24 hrs by Guava Cell Cycle reagent based flow cytometric analysis relative to control; type: functional
Jurkat [10] = assay: Induction of cell cycle arrest in human Jurkat cells assessed as accumulation at S phase at 50 nM after 24 hrs by Guava Cell Cycle reagent based flow cytometric analysis relative to control; type: functional
Jurkat [11] = assay: Induction of cell cycle arrest in human Jurkat cells assessed as accumulation at G2 phase at 400 nM after 24 hrs by Guava Cell Cycle reagent based flow cytometric analysis relative to control; type: functional
Jurkat [12] = assay: Induction of cell cycle arrest in human Jurkat cells assessed as accumulation at sub-G1 phase at 400 nM after 24 hrs by Guava Cell Cycle reagent based flow cytometric analysis relative to control; type: functional
Jurkat [13] = assay: Induction of cell cycle arrest in human Jurkat cells assessed as accumulation at G2/G1 phase at 400 nM after 24 hrs by Guava Cell Cycle reagent based flow cytometric analysis relative to control; type: functional
Jurkat [14] = assay: Induction of cell cycle arrest in human Jurkat cells assessed as accumulation at G2/G1 phase at 200 nM after 24 hrs by Guava Cell Cycle reagent based flow cytometric analysis relative to control; type: functional
Jurkat [15] = assay: Induction of cell cycle arrest in human Jurkat cells assessed as accumulation at G2/G1 phase at 50 nM after 24 hrs by Guava Cell Cycle reagent based flow cytometric analysis relative to control; type: functional
Jurkat [16] = assay: Induction of cell cycle arrest in human Jurkat cells assessed as accumulation at super-G2 phase at 400 nM after 24 hrs by Guava Cell Cycle reagent based flow cytometric analysis relative to control; type: functional
Jurkat [17] = assay: Induction of cell cycle arrest in human Jurkat cells assessed as accumulation at super-G2 phase at 200 nM after 24 hrs by Guava Cell Cycle reagent based flow cytometric analysis relative to control; type: functional
Jurkat [18] = assay: Induction of cell cycle arrest in human Jurkat cells assessed as accumulation at super-G2 phase at 50 nM after 24 hrs by Guava Cell Cycle reagent based flow cytometric analysis relative to control; type: functional
Jurkat [19] = assay: Induction of DNA damage in human Jurkat cells assessed as increase in H2Ax phosphorylation at 0.4 uM after 2 hrs by Alexa Fluor555 staining based flow cytometric analysis; type: functional, cell-based
Jurkat [20] = assay: Induction of mitochondrial membrane potential loss in human Jurkat cells after 4 hrs by flow cytometric analysis; type: functional, cell-based
Jurkat [21] = assay: Induction of mitochondrial membrane potential loss in human Jurkat cells assessed as early apoptotic cells at 200 nM after 4 hrs by MitoSense Red/7-AAD. flow cytometric analysis relative to control; type: functional
Jurkat [22] = assay: Induction of mitochondrial membrane potential loss in human Jurkat cells assessed as late apoptotic cells at 200 nM after 4 hrs by MitoSense Red/7-AAD. flow cytometric analysis relative to control; type: functional
Jurkat [23] = assay: Induction of mitochondrial membrane potential loss in human Jurkat cells assessed as live cells at 400 nM after 4 hrs by MitoSense Red/7-AAD. flow cytometric analysis relative to control; type: functional
Jurkat [24] = assay: Induction of mitochondrial membrane potential loss in human Jurkat cells assessed as late apoptotic cells at 400 nM after 4 hrs by MitoSense Red/7-AAD. flow cytometric analysis relative to control; type: functional
Jurkat [25] = assay: Induction of ROS generation in human Jurkat cells assessed as mitochondria damaged cells at 200 nM after 4 hrs by MitoSox Red/annexin V-CF488A staining based flow cytometric analysis (reference value: 0%); type: functional
Jurkat [26] = assay: Induction of ROS generation in human Jurkat cells assessed as apoptotic cells at 200 nM after 24 hrs by MitoSox Red/annexin V-CF488A staining based flow cytometric analysis (reference value: 3.18%); type: functional
Jurkat [27] = assay: Induction of ROS generation in human Jurkat cells assessed as mitochondria damaged cells at 200 nM after 24 hrs by MitoSox Red/annexin V-CF488A staining based flow cytometric analysis (reference value: 0%); type: functional
[28] = Effect on total CREB level in human jurkat cells at 400 nM by magnetic bead based immunoassay; type: cell-based; details: 0.4 µM
[29] = Effect on total NFKappaB level in human jurkat cells at 400 nM by magnetic bead based immunoassay; type: cell-based; details: 0.4 µM
[30] = Effect on total p38 level in human jurkat cells at 400 nM by magnetic bead based immunoassay; type: cell-based; details: 0.4 µM
[31] = Effect on total ERK1/2 level in human jurkat cells at 400 nM by magnetic bead based immunoassay; type: cell-based; details: 0.4 µM
[32] = Effect on total STAT5 level in human jurkat cells at 400 nM by magnetic bead based immunoassay; type: cell-based; details: 0.4 µM

C#C[C@H](O)CCCCCCCCC/C=C\CC/C=C\CC/C=C\CCCCCCCCCCCCCCCC
Activity (Jurkat [1]): 25.4% | Activity (Jurkat [2]): 15.86% | viability at 0.2 µM (Jurkat [3]): 36.1% | Activity (Jurkat [4]): 43.15% | viability at 0.1 µM (Jurkat [5]): 41.7% | Activity (Jurkat [6]): 5.89% | viability at 0.05 µM (Jurkat [7]): 59.8% | Activity (Jurkat [8]): 34.96% | Activity (Jurkat [9]): 28.57% | Activity (Jurkat [10]): 27.85% | Activity (Jurkat [11]): 7.68% | Activity (Jurkat [12]): 16.56% | Activity (Jurkat [13]): 1.93% | Activity (Jurkat [14]): 1.91% | Activity (Jurkat [15]): 1.91% | Activity (Jurkat [16]): 1.85% | Activity (Jurkat [17]): 0.91% | Activity (Jurkat [18]): 1.35% | Activity (Jurkat [19]): inactive | Activity (Jurkat [20]): Dose-dependent effect | Activity (Jurkat [21]): 0.9% | Activity (Jurkat [22]): 0.84% | Activity (Jurkat [23]): 63.45% | Activity (Jurkat [24]): 2.87% | Activity (Jurkat [25]): 0.16% | Activity (Jurkat [26]): 45.78% | Activity (Jurkat [27]): 0% | Activity [28]: Toxic | Activity [29]: Toxic | Activity [30]: Toxic | Activity [31]: Toxic | Activity [32]: Toxic

From ChEMBL document CHEMBL4673230, “Total Synthesis of Natural Lembehyne C and Investigation of Its Cytotoxic Properties” (J Nat Prod, 2020)
